Where two headings read alike, the source gives them in different places. Blank lines part the entries; values can stand above or below the compound they belong to.
What was measured:
[1] = tested on: Plasmodium Falciparum K1 strain; experiment: in vitro growth-inhibiting screening assay, chloroquine-resistant falciparum malaria; format: cell-based
Protocol: Plasmodium Falciparum K1 strain was used as a chloroquine-resistant protozoa of falciparum malaria. RMI-1640 sterilized by filtration was supplemented with human serum of a final concentration of 5% to be used as a culture medium. The malaria protozoa were cultured under O2 concentration of 3%, CO2 concentration of 4%, N2 concentration of 93% at 37° C.
A test sample was prepared by dissolving the test compounds according to the present invention and a positive control drug (chloroquine) in DMSO to a predetermined concentration. The erythrocytes infected with the cultured malaria protozoa were collected by centrifugation and so diluted with non-infected erythrocytes to have an initial infection ratio of 0.15%. The hematocrit value was then 2.5%. Culture mixture of the above malaria-infection culture medium (200 μL) was placed into each well of a 96-well culture plate, and the test sample comprising the predetermined amount of the test compound, and DMSO without the test compound were added to the wells in duplicate.
After culture for 48 hours at 37° C., hypoxanthine labeled with radioactive tritium (^3H) of 0.5 μCi was added to each well. After the culture in the same conditions for further 24 hours, the sample was taken on a glass fiber filter and washed with distilled water. Intensity of radiation was measured by means of plate liquid scintillation counter (Wallac Co.), and an infection ratio of the protozoa of malaria was calculated with respect to a group treated with the test sample and the control. A growth-inhibiting ratio was then calculated from the resulting infection ratio in accordance with the following equation to determine 50% growth-inhibiting concentration (EC50).
Growth-inhibiting ratio (%)=[1−(b−a)/(c−a)]×100 • a: Initial infection ratio; • b: Infection ratio of the test sample group; and • c: Infection ratio of the control group. In vitro Growth-Inhibiting Assay of Rat L6 Cells
Anti-malaria effect of the samples was assessed by their EC50 values for the chloroquine-resistant protozoa of falciparum malaria and the rat L6 cell. A chemotherapy coefficient, which is used as an index for the selective toxicity for the chloroquine-resistant protozoa of falciparum malaria was calculated by the following equation, and the pharmaceutical effect was determined.
Chemotherapy coefficient=(EC50 value of the test sample for rat L6 cell)/(EC50 value of the test sample for the chloroquine-resistant protozoa of falciparum malaria)

[2] = tested on: Plasmodium berghei NK65 strain; experiment: in vivo 4-day suppressive test, intraperitoneal administration, mouse infected with malaria; settings: 4 days
Protocol: This test was carried out in accordance with 4-day suppressive test that is a general in vivo test for the activity of an anti-malaria compound. Rodent malaria protozoa (Plasmodium berghei NK65 strain) were used in this test. Infected blood was prepared by infection with intraperitoneal administration into ICR male mouse (5 weeks age; SPF) and passage culture (subculture) thereafter. Blood was drawn from the vein of a tail of the moue infected with malaria, and its infection ratio was determined. After it was confirmed that the infection ratio had been increased up to an appropriated level (10˜20%), the blood infected with malaria was drawn from the heart of the mouse. The infection ratio and number (cells/mL) of erythrocytes were determined. An uninfected mouse (ICR male, 5 weeks age) was then infected with an injection of the infected erythrocytes so diluted with PBS as to comprise the protozoa of […] per dose (0.2 mL) into the vein of its tail.
A test sample was prepared by dissolving the test compounds according to the present invention into physiologic saline (Otsuka Pharmaceuticals Industries) to a predetermined concentration. In the case where the compound was insoluble in water, it was dissolved into DMSO or Tween 20 to prepare the test sample. A control group (no drug-administration group) was treated only with physiologic saline. […]
One group consisted of five mice. The intraperitoneal administration of the test sample started after two hours from the infection with malaria and continued for successive 4 days with a 24-hour interval. After 24 hours from the last administration, blood was drawn from the tail of the infected mouse to prepare a thin-layer smear, and the number of the erythrocytes infected with the malaria protozoa under a microscope with respect to the control group and the test sample groups. Parasitemia, i.e., the infection ratio with the malaria protozoa, was obtained by calculating an average value of the medium three mice except the two mice showing a maximum or minimum inhibition level. A cure rate (suppression) was then calculated from the resulting parasitemia in accordance with the following equation.
Cure rate: suppression (%)=(b−a)/b×100 • a: Infection ratio of the test sample group; and • b: Infection ratio of the control group.

malaria = settings: mice infected with malaria; 4-day successive treatment, peritoneal administration 5 mg/kg/day; cited from earlier work
Plasmodium falciparum W2 = settings: in vitro; cited from earlier work
[3] = tested on: Rat L6 cell (rat skeletal myoblast cell); experiment: in vitro growth-inhibiting assay of rat L6 cells; format: cell-based
Protocol: Rat L6 cell (rat skeletal myoblast cell) was cultured in RPMI-1640 culture medium supplemented with 1% of L-glutamine (200 mM) and fetal calf serum (10%) under 5% CO2 concentration at 37° C. A test sample was prepared by dissolving the test compounds according to the present invention and a positive control drug in DMSO to a predetermined concentration. After pre-culture had been finished, the culture medium containing the cells in a logarithmic phase was placed into each well of a 96-well culture plate, and the test sample comprising the predetermined amount of the test compound, and DMSO without the test compound were added to the wells in duplicate.
After incubation of the culture plate for 72 hours in an incubator, a growth-inhibiting activity was assayed as follows. Alamar Blue aqueous solution (10 μL) was added to each well followed by a further two-hour culture. The culture plate was then attached to a fluorescence micro titer plate reader (Spectramax Gemeni XS; U.S. Molecular Device Co.), and the intensity of fluorescence at 588 nm was detected with an excitation wave length of 536 nm. A residual ratio of L6 cells was calculated with respect to a group treated with the test sample and a control group. A growth-inhibiting ratio for L6 cells was then calculated from the resulting residual ratio in accordance with the following equation to determine 50% growth-inhibiting concentration (EC50).
Growth-inhibiting ratio (%)=[1−(C−A)/(B−A)]×100 • A: Initial number of cells; • B: Number of the cells in the control after 3 days; and • C: Number of the cells treated with the test sample after 3 days Determination of Pharmaceutical effect for Chloroquine-Resistant Malaria

[4] = tested on: Leishmania donovani (MHOM/ET/67/L82 strain); experiment: in vitro growth-inhibiting screening assay, protozoa of Leishmaniasis; format: cell-based; settings: Leishmania donovani; amastigotes; 72 h, Alamar Blue; read-out: growth-inhibiting concentration (nM) Leishmania donovani
Protocol: This test was done using the protozoa of Leishmania donovani (MHOM/ET/67/L82 strain). The protozoa were subcultured using Syrian Golden hamster and an amastigote was obtained therefrom. The amastigotes were cultured in SM medium supplemented with 10% of heat-treated fetal calf serum (pH 5.4) under CO2 concentration of 5%, at 37° C.
A test sample was prepared by dissolving the test compounds according to the present invention and a positive control drug (Miltefosine) in DMSO to a predetermined concentration. Culture medium containing a predetermined number of the protozoa was added into each well of a 96-well culture plate, and the concentration of the amastigotes was measured by means of CASY cell analysis system (Dermany, Scharfe Co.). Test sample comprising the predetermined amount of the test compound, and DMSO without the test compound were added to the wells in duplicate.
After incubation of the culture plate for 72 hours in an incubator, a growth-inhibiting activity was assayed as follows. Alamar Blue aqueous solution (10 μL) was added to each well followed by a further two-hour culture. The culture plate was then attached to a fluorescence micro titer plate reader (Spectramax Gemeni XS; U.S. Molecular device Co.), the intensity of fluorescence at 588 nm was detected with excitation wave length of 536 nm to calculate an infection ratio of the protozoa with respect to a group trated with the test sample and a control group. A growth-inhibiting ratio was then calculated from the resulting infection ratio in accordance with the following equation to determine 50% growth-inhibiting concentration (EC50).
(§1) Growth-inhibiting ratio (%)=[1−(b−a)/(c−a)]×100 • a: Initial infection ratio; • b: Infection ratio of the test sample group; and • c: Infection ratio of the control group.
A selective toxicity coefficient, which is used as an index for the selective toxicity for the protozoa of Leishmaniasis, was calculated by the following equation, and the pharmaceutical effect was determined.
A selective toxicity coefficient=(EC50 value of the test sample for rat L6 cell)/(EC50 value of the test sample for the protozoa of Leishmaniasis).

[5] = tested on: Trypanosoma cruzi (Tulahuen C2C4 strain); experiment: in vitro growth-inhibiting screening assay, protozoa of American trypanosomiasis; format: cell-based; settings: Trypanosoma cruzi, TULAHUEN; in infected rat L6 cells; 96 h, CPRG/Nonidet; read-out: 50% growth-inhibiting concentration (nM) Trypanosoma cruzi
Protocol: The test was done using a trypomastigote and an amastigote of the protozoa of Trypanosoma cruzi (Tulahuen C2C4 strain) present in the infected rat L6 cells. The L6 cells were cultured in RPMI-1640 medium supplemented with 1% of […] (200 mM) and 10% of fetal calf serum under CO2 concentration of 5%, at 37° C.
A test sample was prepared by dissolving the test compounds according to the present invention and a positive control drug (benznidazole) in DMSO to a predetermined concentration. Culture medium containing the protozoa of 5×10^3 was added into each well of 96-well culture plate and cultured for 48 hours. After the medium was exchanged, the test sample comprising the predetermined amount of the test compound, and DMSO without the test compound were added into each well in duplicate.
After incubation of the culture plate for 96 hours in an incubator, a growth-inhibiting activity was assayed as follows. CPRG/Nonidet (50 μL) was added to each well followed by a further 2˜6-hour culture. The culture plate was then attached to an absorption micro titer plate reader, the absorbance at 540 nm was detected to calculate an infection ratio of the protozoa with respect to a group treated with the test sample and a control group. A growth-inhibiting ratio was then calculated from the resulting infection ratio in accordance with the following equation to determine 50% growth-inhibiting concentration (EC50).
as §1
A selective toxicity coefficient, which is used as an index for the selective toxicity for the protozoa of American trypanosomiasis, was calculated by the following equation, and the pharmaceutical effect was determined.
A selective toxicity coefficient=(EC50 value of the test sample for rat L6 cell)/(EC50 value of the test sample for the protozoa of American trypanosomiasis).

[6] = Table 3, 72 h, Alamar Blue, read-out: 50% growth-inhibiting concentration (nM) cytotoxicity L6
[7] = chloroquine-resistant strain, 72 h culture, 3H-hypoxanthine, read-out: 50% growth-inhibiting concentration (nM) P. falciparum K1

SMILES: CCN(CC)CCCC(C)Nc1ccnc2cc(Cl)ccc12 (stereo not shown) [Chloroquine, reference compound]
- EC50 ([1]; Plasmodium falciparum, K1, read-out: 50% growth-inhibiting concentration (nM) P. falciparum K1): 150 nM

SMILES: CN(C)c1ccc2nc3ccc(=[N+](C)C)cc-3oc2c1.[O-][Cl+3]([O-])([O-])[O-] [Compound A-2]
- Parasitaemia suppression (%) ([2]; 5 mg/kg/day intraperitoneal): 45.9%

SMILES: CC[N+](CC)=c1ccc2nc3ccc(N(C)C)cc3oc-2c1.[O-][Cl+3]([O-])([O-])[O-] [Compound A-5]
- Parasitaemia suppression (%) ([2]; 5 mg/kg/day intraperitoneal): 77.0%

SMILES: C[N+](C)=c1ccc2nc3c(C(=O)O)cc(O)c(O)c3oc-2c1.[Cl-] [Gallocyanine]
- Suppression(%) (malaria): 15.6%
- EC50 (Plasmodium falciparum W2): 674 ± 159 nM

SMILES: CCN(C)c1ccc2nc3ccc(N(C)C)cc3[o+]c2c1.[O-][Cl+3]([O-])([O-])[O-] [Compound A-9, 3-ethylmethylamino-7-dimethylamino phenoxazinium perchlorate]
- Cure rate (%) ([2]; 5 mg/kg/day intraperitoneal): 71.7%

SMILES: CNc1ccc2nc3ccc(=[N+](C)C)cc-3sc2c1.[Cl-] [Azure B]
- Suppression(%) (malaria): 9.1%
- EC50 (Plasmodium falciparum W2): 12.7 ± 7.36 nM

SMILES: CCOC(=O)N1CCN(c2cc(O)c3nc4ccc(=[N+](C)C)cc-4oc3c2)CC1.[Cl-] [Compound A-17]
- Parasitaemia suppression (%) ([2]; 5 mg/kg/day intraperitoneal): 38.6%

SMILES: CN(C)c1ccc2nc3ccc(=[N+](C)C)cc-3sc2c1.[Cl-] [Methylene Blue]
- Suppression(%) (malaria): 15.9%
- EC50 (Plasmodium falciparum W2): 3.99 ± 2.31 nM

SMILES: C[N+](C)=c1ccc2nc3c(O)cc(N4CCN(CCO)CC4)cc3oc-2c1 [Compound A-15]
- EC50 [3, 6]: 74600 nM
- EC50 [1, 7]: 191 nM

SMILES: CC(=O)Oc1cc(N2CCN(C)CC2)cc2oc3cc(=[N+](C)C)ccc-3nc12.Cl.[Cl-] [Compound A-19]
- Parasitaemia suppression (%) ([2]; 5 mg/kg/day intraperitoneal): 21.4%

- EC50 [4]: 280 nM
SMILES: CCCCCCCCCCCCCCCCOP(=O)([O-])OCC[N+](C)(C)C [Miltefosine, reference compound]

SMILES: CN1CCN(c2cc(O)c3nc4ccc(=[N+](C)C)cc-4oc3c2)CC1.Cl.[Cl-] [Compound A-14]
- EC50 [3, 6]: 86400 nM
- Parasitaemia suppression (%) ([2]; 5 mg/kg/day intraperitoneal): 17.4%
- EC50 [1, 7]: 196 nM

SMILES: O=C(Cn1ccnc1[N+](=O)[O-])NCc1ccccc1 [benznidazole, reference compound]
- EC50 [5]: 870 nM

SMILES: Cc1cc2nc3cc(C)c(N)cc3[n+](-c3ccccc3)c2cc1N.[Cl-] [Safranine O]
- Suppression(%) (malaria): 14.0%
- EC50 (Plasmodium falciparum W2): 34.8 ± 17.2 nM

SMILES: CN(C)c1ccc2nc3ccc(N4CCNCC4)cc3[o+]c2c1.Cl.[Cl-] [Compound A-11, 3-dimethylamino-7-(1-piperazino) phenoxazinium chloride mono-hydrochloride salt]
- EC50 [3]: 63800 nM
- Parasitaemia suppression (%) ([2]; 5 mg/kg/day intraperitoneal): 54.8%
- Parasitaemia suppression (%) ([2]; Table 5, 5.0 mg/kg/day intraperitoneal): 54.8%
- Parasitaemia suppression (%) ([2]; Table 5, 10 mg/kg/day intraperitoneal): 78.5%
- Parasitaemia suppression (%) ([2]; Table 5, 20 mg/kg/day intraperitoneal): 98.1%
- Parasitaemia suppression (%) ([2]; Table 5, 30 mg/kg/day intraperitoneal): >99.99%
- EC50 [1, 7]: 27.5 nM

Source: US20090036437A1, “PHARMACEUTICAL COMPOSITION COMPRISING PHENOXAZINIUM COMPOUND AS AN ACTIVE INGREDIENT” (priority 2005, published 2009)
